Reference: article PMC4867616, “Imaging of Cerebral Amyloid Angiopathy with Bivalent ^99mTc-Hydroxamamide Complexes” (Scientific Reports, 2016)
Where “and” joins values, the source holds several entries; their conditions need not be identical. Identical values can stand only once. Like-named read-outs stand apart in the source and are kept apart here.

Legend:
CAA in Tg2576 mice = molecular target: T1, CAA in Tg2576 mice (Homo sapiens, UniProt P05067); test: SPECT/CT imaging in Tg2576 and wild-type mice; assay type: in vivo; conditions: 30 min postinjection
T1 construct: Aβ(1–40) aggregates, the predominant amyloid found in CAA; tissue Taconic Farms, Inc. (New York, USA); host or cells: brain of living female Tg2576 transgenic mice
Experimental: SPECT/CT imaging. Tg2576 transgenic mice (female, 27 or 30 months old) and wild-type mice (female, 27 or 30 months old) were used as the Alzheimer’s model and age-matched control, respectively. A saline solution (200 μL) of [^99mTc]SB2A (29.6-55.5 MBq) containing EtOH (40 μL) was injected directly into the tail vein. At 30 or 120 min postinjection, SPECT and CT images with the brain region as the ﬁeld of view were collected using the U-SPECT-II/CT system (MILabs, Utrecht, Netherlands) with 0.6-mm pinhole collimators (SPECT conditions, 30 min × 2 frames; CT conditions, accurate full angle mode in 65 kV/615 µA). The mouse was maintained under isoflurane anesthesia, while SPECT and then CT image data were collected. SPECT images were reconstructed by the OSEM method (16 subsets, 6 iterations) with a 0.4-mm Gaussian ﬁlter.

[1] = normal mice, i.v., mean (SD), 5 animals, cited from earlier work
[2] = molecular target: T2, Aβ depositions in Tg2576 mouse brain (Homo sapiens, UniProt P05067); test: Ex vivo autoradiography using Tg2576 and wild-type mice; assay type: in vivo; conditions: for Selectivity for vascular versus parenchymal amyloid aggregates (ex vivo autoradiography, thioflavin-S and anti-CD31 staining): Tg2576 mice, 30 min postinjection
T2 construct: Aβ(1–40) aggregates, the predominant amyloid found in CAA; tissue Taconic Farms, Inc. (New York, USA); host or cells: brain of living female Tg2576 transgenic mice
Experimental: Tg2576 transgenic mice (female, 29 months old) and wild-type mice (female, 29 months old) were used as the AD model and age-matched control, respectively. A saline solution (150 μL) of [^99mTc]SB2A or [^99mTc]BT2B (18.5 MBq) containing EtOH (30 μL) was injected through the tail vein. The mice were sacrificed at 30 min postinjection. The brains were immediately removed, embedded in carboxymethylcellulose solution and then frozen in a dry ice/hexane bath. Sections of 30 μm were cut and exposed to a BAS imaging plate (Fuji Film) overnight. Autoradiographic images were obtained using a BAS5000 scanner system (Fuji Film). After autoradiographic examination, the same sections were stained by thioflavin-S to confirm the presence of Aβ depositions. For thioflavin-S fluorescent staining, the sections were immersed in a 100 μM thioflavin-S solution containing 50% EtOH for 3 min, washed in 50% EtOH for 1 min two times, and examined using a microscope (Keyence Corp.) equipped with a GFP-BP filter set. Additionally, the same sections were immunostained by anti-CD31 antibody to confirm the presence of endothelial cells. For immunohistochemical staining of CD31, the sections were incubated in PBST for 5 min three times, and incubated with anti-CD31 primary antibody (SZ31; Abcam, Cambridgeshire, U.K., dilution 1:50) at room temperature overnight. After three 5-min incubations in PBST, anti-rabbit secondary antibody (Dako, California, USA) incubation was carried out at room temperature for 3 h. Subsequently, the sections were incubated in PBST for 5 min three times, and incubated with diaminobenzidine (Merck) as a chromogen for 5 min. After washing with water, the sections were observed under a microscope (Keyence Corp.).
Ex vivo autoradiography using Tg2576 and wild-type mice. Tg2576 transgenic mice (female, 29 months old) and wild-type mice (female, 29 months old) were used as the Alzheimer’s model and age-matched control, respectively. A saline solution (150 µL) of [^99mTc]BT2B (18.5 MBq) containing ethanol (30 µL) was injected through the tail vein. […]

T2 sequence (P05067 672-711 limits assumed): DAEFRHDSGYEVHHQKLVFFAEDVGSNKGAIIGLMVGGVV
T1 sequence (P05067 672-711 limits assumed): as above

Distribution in brains of Tg2576 versus wild-type mice (in vivo SPECT/CT) (CAA in Tg2576 mice)	Ex vivo autoradiography labeling of Aβ depositions in transgenic mice ([2]; Tg2576 mice (29 months old) vs wild-type, i.v., brains removed at 30 min postinjection)	SMILES	Biodistribution of radioactivity, Blood ([1]; 2 min after injection)	Biodistribution of radioactivity, Brain ([1]; 2 min after injection)	Biodistribution of radioactivity, Blood ([1]; 10 min after injection)	Biodistribution of radioactivity, Brain ([1]; 10 min after injection)	Biodistribution of radioactivity, Blood ([1]; 30 min after injection)	Biodistribution of radioactivity, Brain ([1]; 30 min after injection)	Biodistribution of radioactivity, Blood ([1]; 60 min after injection)	Biodistribution of radioactivity, Brain ([1]; 60 min after injection)	Selectivity for vascular versus parenchymal amyloid aggregates (ex vivo autoradiography, thioflavin-S and anti-CD31 staining) [2]
not differentially distributed	intensive labeling of Aβ depositions	CN(C)c1ccc(/C=C/c2ccc(C3=N[O][99Tc-]4(=[O])([NH]3)[NH2+]C(c3ccc(/C=C/c5ccc(N(C)C)cc5)cc3)=N[O]4)cc2)cc1 (single isomer, unassigned) [[^99mTc]SB2A]	14.28 (1.90) % injected dose per gram	0.28 % injected dose per gram and 0.28 (0.03) % injected dose per gram	7.50 (0.51) % injected dose per gram	0.17 (0.02) % injected dose per gram	5.13 % injected dose per gram and 5.13 (0.57) % injected dose per gram	0.12 (0.01) % injected dose per gram	4.17 (0.24) % injected dose per gram	0.11 (0.01) % injected dose per gram	selectively bound to amyloid aggregates deposited along vessels but not within parenchyma
		CN(C)c1ccc(-c2nc3ccc(C4=N[O][99Tc-]5(=[O])([NH]4)[NH2+]C(c4ccc6nc(-c7ccc(N(C)C)cc7)sc6c4)=N[O]5)cc3s2)cc1 [[^99mTc]BT2B]									specific detection of CAA
